# pKi: −log10 of the molar value.
# Assays:
# [1] = molecular target: Kappa-type opioid receptor (Cavia porcellus) (UniProt P41144); assay: Inhibition against Opioid receptor kappa 1 using selective ligand [3H]U-69593; design: concentration or dose not given beside the values; conditions: concentration not given here
# Mu-type opioid receptor [2] = molecular target: T1, Mu-type opioid receptor (Cavia porcellus, UniProt P97266); assay: Inhibition of [35S]GTP-gamma-S, binding from Opioid receptor mu 1 in Guinea pig Caudate stimulated by DAMGO; format: functional
# T1 sequence (P97266 whole entry): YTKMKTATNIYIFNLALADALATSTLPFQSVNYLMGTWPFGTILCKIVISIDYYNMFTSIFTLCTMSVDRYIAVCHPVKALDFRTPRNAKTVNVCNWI
# [3] = molecular target: T2, Kappa-type opioid receptor (Cavia porcellus, UniProt P41144); assay: Binding affinity determined on Opioid receptor kappa 1 in Guinea pig brain membranes using radioligand [3H]U-69593; format: cell membranes, Membrane
# T2 sequence (P41144 whole entry): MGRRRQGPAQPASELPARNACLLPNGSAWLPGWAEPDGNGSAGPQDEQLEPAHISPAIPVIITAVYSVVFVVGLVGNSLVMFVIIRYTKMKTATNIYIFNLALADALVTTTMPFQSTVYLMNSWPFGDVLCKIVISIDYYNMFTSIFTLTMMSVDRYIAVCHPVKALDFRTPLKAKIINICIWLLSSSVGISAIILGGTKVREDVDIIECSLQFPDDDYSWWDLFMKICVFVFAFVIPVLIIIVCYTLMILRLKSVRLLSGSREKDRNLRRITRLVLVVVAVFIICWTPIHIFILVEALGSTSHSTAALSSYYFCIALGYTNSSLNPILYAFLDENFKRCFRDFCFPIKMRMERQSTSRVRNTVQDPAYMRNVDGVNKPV
# Mu-type opioid receptor [4] = molecular target: T1, Mu-type opioid receptor; assay: Binding affinity determined on Opioid receptor mu 1 in Guinea pig brain membranes using radioligand [3H]DAMGO.; format: cell membranes, Membrane
# Mu-type opioid receptor [5] = molecular target: T1, Mu-type opioid receptor; assay: Binding affinity determined on Opioid receptor mu 1 in Guinea pig brain membranes using radioligand [3H]DAMGO; format: cell membranes, Membrane
# [6] = molecular target: T2, Kappa-type opioid receptor; assay: Inhibition of [35S]GTP-gamma-S, binding from Opioid receptor kappa 1 in Guinea pig Caudate stimulated by U69,593; format: functional
# Sequence of Kappa-type opioid receptor (Cavia porcellus) (P41144 whole entry): as above
Compound,inhibition [1],other results
CC(CN1CCC(C)(c2cccc(O)c2)C(C)C1)NC(=O)CCc1ccc(O)cc1 (configuration not stated),20%,–
CC1CN(CCNC(=O)CCc2ccc(O)cc2)CCC1(C)c1cccc(O)c1 (configuration not stated),11%,–
CC(C)C(CN1CCC(C)(c2cccc(O)c2)C(C)C1)NC(=O)CCc1ccccc1O (configuration not stated),25%,–
COc1ccc(CCC(=O)NC(CN2CCC(C)(c3cccc(O)c3)C(C)C2)C(C)C)cc1 (configuration not stated),16%,–
CC(C)C(CN1CCC(C)(c2cccc(O)c2)C(C)C1)NC(=O)CCc1cccc(O)c1 (configuration not stated),20%,–
COc1cc(CCC(=O)NC(CN2CCC(C)(c3cccc(O)c3)C(C)C2)C(C)C)ccc1O (configuration not stated),42%,–
CC1CN(CC(c2ccccc2)N(C)C(=O)CCc2ccc(O)cc2)CCC1(C)c1cccc(O)c1 (configuration not stated),7%,–
CC(C)[C@@H](CN1CC[C@@](C)(c2cccc(O)c2)[C@@H](C)C1)NC(=O)CCc1ccccc1,28%,–
CC(C)C(CN1CCC(C)(c2cccc(O)c2)C(C)C1)NC(=O)Cc1ccc(O)cc1 (configuration not stated),6%,–
Oc1ccc2c3c1O[C@H]1c4[nH]c5c(c4C[C@@]4(O)[C@@H](C2)N(CC2CC2)CC[C@]314)C[C@@]1(O)[C@H]2Cc3ccc(O)c4c3[C@@]1(CCN2CC1CC1)[C@H]5O4 [NORBINALTORPHIMINE],–,pKi (Mu-type opioid receptor [2]): 7.78
CC(C)C(CN1CCC(C)(c2cccc(O)c2)C(C)C1)NC(=O)CCc1ccc(F)cc1 (configuration not stated),26%,–
CC(C)C(CN1CCC(C)(c2cccc(O)c2)C(C)C1)NC(=O)CCc1ccc(O)c(O)c1 (configuration not stated),31%,–
CCC(C)[C@@H](CN1CCC(C)(c2cccc(O)c2)C(C)C1)NC(=O)CCc1ccc(O)cc1 (some centres not stated),–,pKi [3]: 8.05; pKi (Mu-type opioid receptor [4]): 6.38
CC1CN(CCN(C)C(=O)CCc2ccc(O)cc2)CCC1(C)c1cccc(O)c1 (configuration not stated),0%,–
CC(C)C[C@@H](CN1CCC(C)(c2cccc(O)c2)C(C)C1)NC(=O)CCc1ccc(O)cc1 (some centres not stated),–,pKi (Mu-type opioid receptor [5]): 6.40
CC(CN1CCC(C)(c2cccc(O)c2)C(C)C1)N(C)C(=O)CCc1ccc(O)cc1 (configuration not stated),1%,–
C[S+](C)[O-],4%,–
CC(C)[C@H](CN1CC[C@@](C)(c2cccc(O)c2)[C@@H](C)C1)NC(=O)CCc1ccc(O)cc1,11%,–
CC(C)[C@@H](CN1CC[C@@](C)(c2cccc(O)c2)[C@@H](C)C1)NC(=O)CCc1ccc(O)cc1,71%,pKi (Mu-type opioid receptor [5]): 6.41; pKi [3]: 8.16; pKi (Mu-type opioid receptor [2]): 8.14; pKi [6]: 8.33
CC(C)C(CN1CCC(C)(c2cccc(O)c2)C(C)C1)NC(=O)/C=C/c1ccc(O)cc1 (configuration not stated),15%,–
CC1CN(C[C@@H](NC(=O)CCc2ccc(O)cc2)C2CCCCC2)CCC1(C)c1cccc(O)c1 (some centres not stated),–,pKi [3]: 7.08; pKi (Mu-type opioid receptor [4]): 6.63
CC1CN(C[C@H](Cc2ccccc2)NC(=O)CCc2ccc(O)cc2)CCC1(C)c1cccc(O)c1 (some centres not stated),–,pKi (Mu-type opioid receptor [4]): 8.02
C[C@@H]1CN(C/C=C/c2ccccc2)CC[C@]1(C)c1cccc(O)c1,–,pKi (Mu-type opioid receptor [5]): 9.13; pKi [3]: 6.91; pKi (Mu-type opioid receptor [2]): 10.41; pKi [6]: 8.98

# Source: ChEMBL document CHEMBL1131434, “Identification of an opioid kappa receptor subtype-selective N-substituent for (+)-(3R,4R)-dimethyl-4-(3-hydroxyphenyl)piperidine” (J Med Chem, 1998)
